# Experimental data reported in patent US20250228954A1, “Designing Antisense Oligonucleotide Delivery Peptides by Interpretable Machine Learning” (Sarepta Therapeutics, Inc., priority 2020, published 2025).
# Key:
# HeLa 654 cells [1] = test: HeLa-654 eGFP assay (corrective splicing / exon skipping by PMO IVS2-654); assay type: cell-based, human; conditions: 5 μM, 22 h; for FOLD OVER PMO: eGFP fluorescence of PMO-peptide conjugate relative to unconjugated PMO
# Description: With the 36 constructs synthesized, the ability to modulate PMO activity using the modified HeLa cell assay was tested. The HeLa-654 cells were stably transfected to express a nonfluorescent eGFP protein. The eGFP gene is interrupted by a mutant intron from the human β-globin gene (IVS2-654). The insertion alters pre-mRNA splicing to cause retention of a fragment in the mature mRNA that results in a nonfluorescent protein. PMO IVS2-654 base-pairs with the B-globin insertion, modifies mRNA splicing, and thereby leads to expression of fluorescent eGFP.
# For treatment, the crude reaction mixture was diluted to 5 μM in media. The concentration of the modular construct was calculated based on the original concentration of the module 1-2 conjugate mixed in the reaction. Using media containing 10% fetal bovine serum (FBS), the cells were treated with each construct for 22 hours, after which the cellular fluorescence was measured by flow cytometry.
# From the lists of hundreds of predicted peptide sequences, twenty candidates were selected that varied in length, charge, and predicted activity to synthesize and test. Just as with the PMO-peptide library, the PMO-Mach constructs were first tested for PMO delivery in the HeLa 654 assay at 5 μM in complete media for 22 hours and analyzed by flow cytometry (FIG. 14). Experiments were conducted using three technical triplicates and two or three biological replicates.
# (§1) HeLa 654 cells were maintained in MEM supplemented with 10% (v/v) fetal bovine serum (FBS) and 1% (v/v) penicillin-streptomycin at 37° C. and 5% CO2. Eighteen hours prior to treatment, the cells were plated at a density of 5,000 cells per well in a 96-well plate in MEM supplemented with 10% FBS and 1% penicillin-streptomycin. The day of the experiment, the 384 well plate containing the crude reaction mixtures in DMSO was diluted to 100 μM by the addition of 16.8 μL of PBS to the 3.2 μL reaction mixture. Then, each construct was diluted to 5 μM in MEM supplemented with 10% FBS and 1% penicillin-streptomycin. Cells were incubated with each conjugate at a concentration of 5 μM for 22 hours at 37° C. and 5% CO2. Next, the treatment media was aspirated the cells were incubated with Trypsin-EDTA 0.25% for 15 min at 37° C. and 5% CO2, washed 1× with PBS, and resuspended in PBS with 2% FBS and 2 μg/mL propidium iodide. Flow cytometry analysis was carried out on a BD LSRII flow cytometer. Gates were applied to the data to ensure that cells that were highly positive for propidium iodide or had forward/side scatter readings that were sufficiently different from the main cell population were excluded. Each sample was capped at 5,000 gated events.
# Analysis was conducted using Graphpad Prism 7. For each sample, the mean fluorescence intensity and the number of gated cells was measured (FIGS. 8 and 9) and the intensity multiplied by the cell number was calculated (FIG. 7).
# HeLa 654 cells [2] = test: Cytotoxicity by gated cell count and propidium iodide staining in flow cytometry; assay type: cell-based, human; conditions: at the concentrations tested in dose-response, 22 h
# Source text: The different modules led to several noticeable trends in the level of cellular fluorescence (FIG. 6). When module 2 was DPV6, the overall construct consistently led to high fluorescence, regardless of which peptides were placed in module 3 and 4. However, when either pVEC or TP10 was placed in module 2, minor cellular fluorescence was observed. A gated cell count was used during flow cytometry as an indirect read-out to control for the toxicity of the compounds. Highly toxic compounds led to a reduction in overall cell count and non-viable cells were gated out based upon propidium iodide staining. In this experiment, it was observed that when the module 3 peptide was the nuclear localization sequence KRVK, lower cell counts were consistently observed.
# In the same format as described above, HeLa 654 cells were treated with varying concentrations of Mach 2, 3, 4, and 7 for 22 hours and analyzed by flow cytometry.
# as §1
SMILES,"PMO delivery / activity, result in words (HeLa 654 cells [1])",FOLD OVER PMO (HeLa 654 cells [1]),cytotoxicity as determined by cell count and PI staining (HeLa 654 cells [2])
CC[C@H](C)[C@H](NC(=O)[C@H](CC(C)C)NC(=O)[C@H](CCCNC(=N)N)NC(=O)CCCCCNC(=O)[C@H](Cc1ccc(O)cc1)NC(=O)[C@H](CCCCN)NC(=O)CCCCCNC(=O)[C@H](C)NC(=O)[C@H](CO)NC(=O)[C@H](CCCNC(=N)N)NC(=O)[C@H](C)NC(=O)[C@H](CCCCN)NC(=O)[C@H](Cc1c[nH]c2ccccc12)NC(=O)[C@H](CC(C)C)NC(=O)[C@H](Cc1c[nH]c2ccccc12)NC(=O)[C@H](CCCCN)NC(=O)[C@H](CCCCN)NC(=O)[C@H](CCCCN)NC(=O)[C@H](CCC(N)=O)NC(=O)[C@H](CCCCN)NC(=O)[C@H](CO)NC(=O)[C@H](CO)NC(=O)[C@H](CCCCN)NC(=O)[C@H](CCCCN)NC(=O)[C@H](CC(C)C)NC(=O)[C@H](CCCNC(=N)N)NC(=O)[C@H](CCCCN)NC(=O)[C@H](CCCCN)NC(=O)[C@H](CCCCN)NC(=O)[C@H](Cc1c[nH]c2ccccc12)NC(=O)[C@H](CC(C)C)NC(=O)[C@H](C)NC(=O)[C@H](C)NC(=O)[C@H](C)NC(=O)[C@@H]1CCCN1C(=O)[C@@H](NC(=O)[C@H](CCCCN)NC(=O)[C@H](Cc1c[nH]c2ccccc12)NC(=O)[C@H](C)NC(=O)[C@H](CCCNC(=N)N)NC(=O)[C@H](C)NC(=O)[C@H](C)NC(=O)CCNC(=O)[C@H](CCC(N)=O)NC(=O)[C@@H](NC(=O)[C@H](C)NC(=O)CCCCCNC(=O)[C@@H]1CCCN1C(=O)[C@H](Cc1c[nH]cn1)NC(=O)[C@H](CCCCN)NC(=O)CCCCCNC(=O)CCCCn1nnc2c1-c1ccccc1N(C(=O)CCCCC(=O)N1C[C@@H](COP(=O)(N(C)C)N3C[C@@H](COP(=O)(N(C)C)N4C[C@@H](COP(=O)(N(C)C)N5C[C@@H](COP(=O)(N(C)C)N6C[C@@H](COP(=O)(N(C)C)N7C[C@@H](COP(=O)(N(C)C)N8C[C@@H](COP(=O)(N(C)C)N9C[C@@H](COP(=O)(N(C)C)N%10C[C@@H](COP(=O)(N(C)C)N%11C[C@@H](COP(=O)(N(C)C)N%12C[C@@H](COP(=O)(N(C)C)N%13C[C@@H](COP(=O)(N(C)C)N%14C[C@@H](COP(=O)(N(C)C)N%15C[C@@H](COP(=O)(N(C)C)N%16C[C@@H](COP(=O)(N(C)C)N%17C[C@@H](COP(=O)(N(C)C)N%18C[C@@H](COP(=O)(N(C)C)N%19C[C@@H](COP(=O)(N(C)C)N%20CCN(C(=O)OCCOCCOCCO)CC%20)O[C@@H](n%20cnc%21c(=O)[nH]c(N)nc%21%20)C%19)O[C@@H](n%19ccc(N)nc%19=O)C%18)O[C@@H](n%18cc(C)c(=O)[nH]c%18=O)C%17)O[C@@H](n%17cnc%18c(N)ncnc%18%17)C%16)O[C@@H](n%16cc(C)c(=O)[nH]c%16=O)C%15)O[C@@H](n%15cc(C)c(=O)[nH]c%15=O)C%14)O[C@@H](n%14cnc%15c(N)ncnc%15%14)C%13)O[C@@H](n%13ccc(N)nc%13=O)C%12)O[C@@H](n%12ccc(N)nc%12=O)C%11)O[C@@H](n%11cc(C)c(=O)[nH]c%11=O)C%10)O[C@@H](n%10cc(C)c(=O)[nH]c%10=O)C9)O[C@@H](n9cnc%10c(N)ncnc%109)C8)O[C@@H](n8cnc9c(N)ncnc98)C7)O[C@@H](n7ccc(N)nc7=O)C6)O[C@@H](n6ccc(N)nc6=O)C5)O[C@@H](n5ccc(N)nc5=O)C4)O[C@@H](n4cnc5c(N)ncnc54)C3)O[C@@H](n3cnc4c(=O)[nH]c(N)nc43)C1)Cc1ccccc1-2)C(C)C)C(C)C)C(N)=O (some centres unmarked) [MACH 7],nearly identical,36,no cytotoxicity
CC[C@H](C)[C@H](NC(=O)[C@H](CO)NC(=O)[C@H](CC(C)C)NC(=O)[C@H](CCCCN)NC(=O)CNC(=O)[C@H](CCCCN)NC(=O)[C@@H]1CCCN1C(=O)[C@H](Cc1c[nH]c2ccccc12)NC(=O)[C@H](CC(N)=O)NC(=O)[C@H](CCCCN)NC(=O)[C@H](CCCCN)NC(=O)[C@H](CC(N)=O)NC(=O)[C@H](C)NC(=O)[C@H](CCCCN)NC(=O)[C@H](CO)NC(=O)[C@H](CCCCN)NC(=O)[C@H](CCCNC(=N)N)NC(=O)[C@H](CCCCN)NC(=O)[C@H](CCCCN)NC(=O)[C@H](CCC(N)=O)NC(=O)CCCCn1nnc2c1-c1ccccc1N(C(=O)CCCCC(=O)N1C[C@@H](COP(=O)(N(C)C)N3C[C@@H](COP(=O)(N(C)C)N4C[C@@H](COP(=O)(N(C)C)N5C[C@@H](COP(=O)(N(C)C)N6C[C@@H](COP(=O)(N(C)C)N7C[C@@H](COP(=O)(N(C)C)N8C[C@@H](COP(=O)(N(C)C)N9C[C@@H](COP(=O)(N(C)C)N%10C[C@@H](COP(=O)(N(C)C)N%11C[C@@H](COP(=O)(N(C)C)N%12C[C@@H](COP(=O)(N(C)C)N%13C[C@@H](COP(=O)(N(C)C)N%14C[C@@H](COP(=O)(N(C)C)N%15C[C@@H](COP(=O)(N(C)C)N%16C[C@@H](COP(=O)(N(C)C)N%17C[C@@H](COP(=O)(N(C)C)N%18C[C@@H](COP(=O)(N(C)C)N%19C[C@@H](COP(=O)(N(C)C)N%20CCN(C(=O)OCCOCCOCCO)CC%20)O[C@@H](n%20cnc%21c(=O)[nH]c(N)nc%21%20)C%19)O[C@@H](n%19ccc(N)nc%19=O)C%18)O[C@@H](n%18cc(C)c(=O)[nH]c%18=O)C%17)O[C@@H](n%17cnc%18c(N)ncnc%18%17)C%16)O[C@@H](n%16cc(C)c(=O)[nH]c%16=O)C%15)O[C@@H](n%15cc(C)c(=O)[nH]c%15=O)C%14)O[C@@H](n%14cnc%15c(N)ncnc%15%14)C%13)O[C@@H](n%13ccc(N)nc%13=O)C%12)O[C@@H](n%12ccc(N)nc%12=O)C%11)O[C@@H](n%11cc(C)c(=O)[nH]c%11=O)C%10)O[C@@H](n%10cc(C)c(=O)[nH]c%10=O)C9)O[C@@H](n9cnc%10c(N)ncnc%109)C8)O[C@@H](n8cnc9c(N)ncnc98)C7)O[C@@H](n7ccc(N)nc7=O)C6)O[C@@H](n6ccc(N)nc6=O)C5)O[C@@H](n5ccc(N)nc5=O)C4)O[C@@H](n4cnc5c(N)ncnc54)C3)O[C@@H](n3cnc4c(=O)[nH]c(N)nc43)C1)Cc1ccccc1-2)C(=O)N[C@@H](Cc1c[nH]cn1)C(=O)N[C@@H](C)C(=O)N[C@@H](CCCCN)C(=O)N[C@@H](CC(=O)O)C(=O)N[C@@H](Cc1ccc(O)cc1)C(=O)N[C@@H](CCCCN)C(=O)N[C@@H](CCC(N)=O)C(=O)NCC(=O)N1CCC[C@H]1C(=O)N[C@@H](CCCCN)C(=O)N[C@@H](C)C(=O)N[C@@H](CCCCN)C(=O)NCCCCCC(=O)N[C@@H](CCCNC(=N)N)C(=O)N[C@@H](CCCCN)C(=O)N[C@@H](CCC(N)=O)C(=O)N[C@@H](CCCNC(=N)N)C(=O)NCCCCCC(=O)N[C@@H](CCCNC(=N)N)C(N)=O (some centres unmarked) [MACH 3],–,38,no cytotoxicity
